Results from patent US11311562B2, “Methods for reducing the incidence of oxidative stress using human milk oligosaccharides, vitamin c and anti-inflammatory agents” (priority 2010, dated 2022).

What was measured:
[1] = tested on: respiratory syncytial virus (RSV); format: cell-based; details: HMOs added at 1 mg/mL or 10 mg/mL; virus dose about 500-1,000 units/mL
[2] = tested on: interleukin 10 (IL-10); experiment: IL-10 in supernatants of HMO-pretreated PBMCs with or without RSV; format: cell-based, human; details: PBMCs in the presence or absence of RSV; FIGS. 7-10
Experimental: (§1) Specifically, either 3′SL or 6′SL is added, at concentrations of 0.1 mg/mL, 0.2 mg/mL, or 0.5 mg/mL to fresh peripheral blood mononuclear cells (PBMCs) and incubated at 37° C. in 5% CO2 to pretreat the cells for approximately 24 hours. LNnT is added, at concentrations of 0.1 mg/mL, 0.2 mg/mL, or 1 mg/mL to PBMCs and incubated at 37° C. in 5% CO2 to pretreat the cells for approximately 24 hours. Lactose is included as a carbohydrate control. Matched endotoxin unit concentration controls are included to allow differentiation of ingredient effects from inherent low levels of endotoxin. Some variables are then incubated with RSV at a multiplicity of infection (MOI) of 0.1 for approximately 1 hour at 37° C. in 5% in CO2. Uninfected control variables are incubated with medium for approximately 1 hour at 37° C. in 5% CO2. After approximately one hour, fresh medium alone, or fresh medium containing the appropriate concentration of 3′SL, 6′SL, LNnT, lactose, or endotoxin is added to the appropriate tubes and the cells are incubated for 48 hours at 37° C. in 5% CO2. Supernatants are collected at 24 and 48 hours post-infection. Cytokines are measured in supernatants for each variable at 24 and 48 hours to assess the effects of HMOs on the early immune response to RSV. Cytokines are measured using custom Bio-Plex Human cytokine kits from Bio-Rad.

[3] = tested on: H1N1 influenza virus; format: cell-based; details: for IC50 (mg HMO/mL) H1N1 Influenza: HMOs added at 1 mg/mL or 10 mg/mL, virus dose about 500-1,000 units/mL
[4] = tested on: IP-10; experiment: IP-10 in supernatants of HMO-pretreated, RSV-infected PBMCs; format: cell-based, human; details: for IP-10 in virus-infected variables: RSV MOI 0.1, 24 h pretreatment, both donors, FIGS. 3-6; for IP-10 in virus-infected variables / reducing inflammation caused by RSV: PBMCs; for reducing inflammation caused by RSV: pretreatment for 24 hours
Experimental: as §1
IP-10 is a CXC chemokine that attracts, binds to and activates the CXCR3 receptor on natural killer cells and memory T cells. IP-10 is expressed by monocytes and a number of other cells, and is induced by interferon. A positive correlation exists between RSV clinical disease severity in children (as measured by: length of hospital stay, fever, and number of days supplemental O2 is required) and serum IP-10. Therefore, a decrease in IP-10 signals a decrease in severity of RSV disease experienced.

[5] = tested on: monocyte-derived cytokines; experiment: monocyte-derived cytokines in supernatants of HMO-pretreated PBMCs with or without RSV; format: cell-based, human
Experimental: as §1

[6] = tested on: H1N1 influenza virus; format: cell-based; details: 10 mg/mL HMO; MDCK cells; FIG. 1
[7] = tested on: human parainfluenza virus (HPIV3); format: cell-based; details: HMOs added at 1 mg/mL or 10 mg/mL; virus dose about 500-1,000 units/mL
[8] = PBMCs in the presence or absence of the virus

Row | SMILES | IC50 (mg HMO/mL) RSV [1] | IL-10 concentration [2] | IC50 (mg HMO/mL) H1N1 Influenza [3] | IP-10 in virus-infected variables [4] | IP-10 level compared with uninfected controls ([4]; RSV-infected PBMCs) | downregulation of IP-10 compared with 3′SL ([4]; RSV-infected PBMCs) | reducing inflammation caused by RSV [4] | production of monocyte-derived cytokines (immunomodulatory) [5, 8] | inhibition of virus infectivity [6] | IC50 (mg HMO/mL) HPIV3 [7] | production of monocyte-derived cytokines (immunomodulatory) ([5]; PBMCs in the absence of the virus) | anti-viral activity against H1N1 influenza virus ([3]; HMO at 1 mg/mL) | RSV-induced IP-10, Donor B ([4]; RSV-infected PBMCs, Donor B, 0.1-0.5 mg/mL) | RSV-induced IP-10, Donor E ([4]; RSV-infected PBMCs, Donor E, 0.1-0.5 mg/mL)
1 | CC(=O)N[C@H]1[C@H](O[C@H]2[C@@H](O)[C@@H](CO)O[C@@H](O[C@H]3[C@H](O)[C@@H](O)C(O)O[C@@H]3CO)[C@@H]2O)O[C@H](CO)[C@@H](O[C@@H]2O[C@H](CO)[C@H](O)[C@H](O)[C@H]2O)[C@@H]1O (mixture of isomers) [LNnT, lacto-N-neotetraose] | >10 mg HMO/mL | increases IL-10 concentration in a dose-dependent manner | >10 mg HMO/mL | clearly downregulates IP-10 | reduce IP-10 to levels found in uninfected controls | more effective than 3′SL | effective | induces and/or modifies the production of monocyte-derived cytokines such as IL-10, MIP-1β, Interferon-γ, IL-8, IL-1α, IL-1β, and IL-1ra | – | – | – | – | – | –
2 | CC(=O)N[C@H]1[C@H]([C@H](O)[C@H](O)CO)O[C@@](OC[C@H]2O[C@@H](O[C@H]3[C@H](O)[C@@H](O)[C@H](O)O[C@@H]3CO)[C@H](O)[C@@H](O)[C@H]2O)(C(=O)O)C[C@@H]1O [6′SL, 6′-sialyllactose] | >10 mg HMO/mL | increases interleukin 10 (IL-10) concentration in a dose-dependent manner | ~10 mg HMO/mL | downregulates IP-10 | reduce IP-10 to levels found in uninfected controls | more effective than 3′SL | effective | – | approximately 60% | >10 mg HMO/mL | induces and/or modifies the production of monocyte-derived cytokines such as IL-10, MIP-1β, Interferon-γ, IL-8, IL-1α, IL-1β, and IL-1ra | – | – | –
3 | CC(=O)N[C@H]1[C@H]([C@H](O)[C@H](O)CO)O[C@@](O[C@H]2[C@@H](O)[C@@H](CO)O[C@@H](O[C@H]3[C@H](O)[C@@H](O)C(O)O[C@@H]3CO)[C@@H]2O)(C(=O)O)C[C@@H]1O (stereo partly drawn) [3′SL, 3′-sialyllactose] | >10 mg HMO/mL | – | ~5 mg HMO/mL | dampen RSV-induced IP-10 | – | – | effective | induces and/or modifies the production of monocyte-derived cytokines such as MIP-1β, Interferon-γ, IL-8, and IL-1ra | – | >10 mg HMO/mL | – | inhibited | not effective | downregulates RSV-induced IP-10
